# Assay results reported in publication PMC4121658 (Anesthesiology, 2014).
# Key:
# rats [1] = conditions: larger number of Sprague Dawley rats; cited from earlier work
# rats [2] = assay: Lethality after intravenous bolus injection; format: in vivo, Sprague-Dawley rats; conditions: for rats died: intravenous bolus; for Therapeutic Index: LD50/Hypnotic ED50, rats
# [3] = Lethality after intravenous bolus injection; format: in vivo, Sprague-Dawley rats; conditions: Sprague-Dawley, rat, in vivo, iv
# [4] = molecular target: α1(L264T)β3γ2L GABAA receptors (Homo sapiens, UniProt P14867+P28472, L291T); assay: cell-based; format: cell-based; conditions: for Surge current amplitude, of the directly activated peak current: 1000 μM drug, upon washout, α1(L264T)β3γ2L; for Subunit Selectivity Ratio: EC50 β1 subunit/EC50 β3 subunit, ± SD by error propagation
# Chain of α1(L264T)β3γ2L GABAA receptors (P14867 28-456 L291T): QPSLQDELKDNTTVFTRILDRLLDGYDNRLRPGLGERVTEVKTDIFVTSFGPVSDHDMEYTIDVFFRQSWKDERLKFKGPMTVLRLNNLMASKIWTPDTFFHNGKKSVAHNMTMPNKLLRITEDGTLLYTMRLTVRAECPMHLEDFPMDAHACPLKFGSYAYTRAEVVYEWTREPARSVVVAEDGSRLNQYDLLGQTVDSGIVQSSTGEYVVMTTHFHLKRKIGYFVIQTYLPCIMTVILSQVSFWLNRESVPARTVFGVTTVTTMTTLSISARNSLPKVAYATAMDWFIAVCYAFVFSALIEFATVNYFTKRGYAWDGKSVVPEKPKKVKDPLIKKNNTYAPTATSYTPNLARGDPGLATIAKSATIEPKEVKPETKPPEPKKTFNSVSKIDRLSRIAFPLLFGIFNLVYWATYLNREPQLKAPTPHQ
# Chain of α1(L264T)β3γ2L GABAA receptors (P28472 26-473): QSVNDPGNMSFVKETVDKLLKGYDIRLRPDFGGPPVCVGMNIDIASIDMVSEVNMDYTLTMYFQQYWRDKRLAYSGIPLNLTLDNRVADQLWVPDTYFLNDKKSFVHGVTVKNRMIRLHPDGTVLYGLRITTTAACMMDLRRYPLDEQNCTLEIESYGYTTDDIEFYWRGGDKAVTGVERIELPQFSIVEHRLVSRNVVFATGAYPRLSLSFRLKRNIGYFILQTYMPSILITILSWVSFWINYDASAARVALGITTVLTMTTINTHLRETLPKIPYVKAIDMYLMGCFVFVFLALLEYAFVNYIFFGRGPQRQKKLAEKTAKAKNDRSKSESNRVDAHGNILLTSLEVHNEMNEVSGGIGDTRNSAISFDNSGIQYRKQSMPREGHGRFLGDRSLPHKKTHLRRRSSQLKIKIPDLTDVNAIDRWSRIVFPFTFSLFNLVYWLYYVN
# Chain of α1(L264T)β3γ2L GABAA receptors (P18507 40-475 partner): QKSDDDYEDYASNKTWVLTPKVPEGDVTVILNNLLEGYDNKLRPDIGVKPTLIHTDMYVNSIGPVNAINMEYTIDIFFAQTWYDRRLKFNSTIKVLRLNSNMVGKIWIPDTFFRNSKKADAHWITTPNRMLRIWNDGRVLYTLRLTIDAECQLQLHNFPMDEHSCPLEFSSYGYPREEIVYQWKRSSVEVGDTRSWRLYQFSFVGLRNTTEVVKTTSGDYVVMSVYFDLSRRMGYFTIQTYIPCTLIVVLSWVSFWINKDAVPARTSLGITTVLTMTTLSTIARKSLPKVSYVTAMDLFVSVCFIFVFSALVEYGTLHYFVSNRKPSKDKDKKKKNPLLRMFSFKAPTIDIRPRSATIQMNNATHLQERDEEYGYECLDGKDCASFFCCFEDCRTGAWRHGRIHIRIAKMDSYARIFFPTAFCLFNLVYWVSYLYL
# adrenocortical function = assay: ACTH1–24 stimulation test, in vivo adrenocortical inhibitory potency; design: species or system Sprague-Dawley rats; conditions: Adrenocortical ID50/Hypnotic ED50, rats
# [5] = molecular target: α1(L264T)β1γ2L GABAA receptors (Homo sapiens, UniProt P14867+P18505, L291T); format: cell-based; conditions: for Surge current amplitude, of the directly activated peak current: 1000 μM drug, upon washout, α1(L264T)β1γ2L
# Chain of α1(L264T)β1γ2L GABAA receptors (P14867 28-456 L291T): as the sequence (P14867 28-456 L291T) above
# Chain of α1(L264T)β1γ2L GABAA receptors (P18505 26-474): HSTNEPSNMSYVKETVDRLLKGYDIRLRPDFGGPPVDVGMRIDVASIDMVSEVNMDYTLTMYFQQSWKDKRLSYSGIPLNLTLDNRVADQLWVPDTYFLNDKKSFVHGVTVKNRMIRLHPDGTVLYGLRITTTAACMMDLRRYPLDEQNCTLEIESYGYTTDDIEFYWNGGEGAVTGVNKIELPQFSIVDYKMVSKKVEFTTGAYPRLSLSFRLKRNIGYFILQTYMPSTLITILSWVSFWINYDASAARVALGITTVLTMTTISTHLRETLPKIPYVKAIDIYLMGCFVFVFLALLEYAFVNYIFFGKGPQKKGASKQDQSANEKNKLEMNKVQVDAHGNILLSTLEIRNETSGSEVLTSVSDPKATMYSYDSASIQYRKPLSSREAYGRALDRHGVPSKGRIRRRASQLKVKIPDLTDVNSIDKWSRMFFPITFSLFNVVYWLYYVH
# Chain of α1(L264T)β1γ2L GABAA receptors (P18507 40-475 partner): as the sequence (P18507 40-475 partner) above
SMILES,"LD50, previously reported value (rats [1]) [mg/kg]",rats died (rats [2]; 20 mg/kg dose),LD50 [3] [mg/kg],LD50 ([3]; 20 mg/kg) [mg/kg],rats died (rats [2]; 30 mg/kg dose),EC50 [4] [µM],"Surge current amplitude, of the directly activated peak current [4] [%]",Subunit Selectivity Ratio [4],Adrenocortical Toxicity Index (adrenocortical function),EC50 [5] [µM],"Surge current amplitude, of the directly activated peak current [5] [%]",rats died (rats [2]; 50 mg/kg dose),Therapeutic Index (rats [2])
"CCOC(=O)c1cncn1[C@H](C)c1ccccc1 [R-etomidate, R-ethyl 1-(1-phenylethyl)-1H-imidazole-5-carboxylate, reference compound]",20.4,1/2,15,20,–,–,–,–,–,–,–,–,–
"CCOC(=O)c1cncn1[C@@H](C)c1ccccc1 [S-etomidate, S-ethyl 1-(1-phenylethyl)-1H-imidazole-5-carboxylate, reference compound]",–,–,25,–,3/3,–,–,–,–,–,–,–,–
"CCOC(=O)c1cncn1C1(c2ccccc2)CC1 [cyclopropyl etomidate, ethyl 1-(1-phenylcyclopropyl)-1H-imidazole-5-carboxylate]",–,–,50,–,–,67.6 ± 8.1,61.5 ± 6.9,23.5 ± 3.5,0.38 ± 0.08,1590 ± 140,73.0 ± 38.5,2/4,10
"CCOC(=O)c1cncn1Cc1ccccc1 [dihydrogen etomidate, ethyl 1-benzyl-1H-imidazole-5-carboxylate]",–,–,40,–,–,161 ± 13,3 ± 2,2.48 ± 0.27,0.52 ± 0.12,400 ± 28,3 ± 2,3/3,8
"CC(C)c1cccc(C(C)C)c1O [propofol, reference compound]",–,–,–,–,–,7.58 ± 0.83,–,–,–,–,–,–,–
